Source: paper PMC7593677, “Discovery of N-(2-Amino-4-Fluorophenyl)-4-[bis-(2-Chloroethyl)-Amino]-Benzamide as a Potent HDAC3 Inhibitor” (Frontiers in Oncology, 2020)
Read-outs that look alike come from different tables or passages of the source. Blank lines part the entries; values can stand above or below the compound they belong to.

Tests used:
HepG2 cells xenograft = test system: HepG2 cells xenograft; parameters: method as in PMID 31543818; conditions: nude mice xenograft model; cited from earlier work
HepG2 cells [1] = assay: Drug combination analysis (MTT assay); format: cell-based; conditions: Homo sapiens, 48 h, read-out: Percentage inhibition rate (PIR)
Description: The efficacy of drug combination of FNA with taxol and camptothecin was evaluated via cell viability assay (MTT assay). The stock solutions of tested compounds were diluted to the desired concentrations with culture medium. The cells were cultured in 96-well plates at a density 5 × 10^3 cells per well and incubated until 90–95% confluence, and then 100 μL of medium containing desired concentrations of test compounds was added to the wells. Following 48-h incubation, 10 μL of MTT working solution was added to each well and incubated for another 4 h. After removal of the medium, 200 μL DMSO was added to each well to dissolve the formed formazan. The plates were vortexed for 10 min to ensure complete dissolution. Then the OD was acquired with a microplate reader at 490 and 630 nm.

HepG2 cells [2] = assay: Antiproliferative MTT assay; format: cell-based, human
Description: (§1) The stock solutions of compounds to be tested were prepared in culture medium. […] To determine cell viability, 20 μL MTT working solution (5 mg/mL) was then added to each well and incubated for another 4 h. After this incubation, the medium was carefully aspirated, and 200 μL dimethyl sulfoxide (DMSO) was added to each well and vibrated for 10 min to make sure formed formazans were completely dissolved. The optical densities (ODs) at 490 and 630 nm were counted by Universal Microplate Spectrophotometer. […] Origin 7.5 software was used to calculate the IC50 values from at least three independent experiments.

HepG2 xenograft = assay: In vivo antitumor activity, HepG2 xenograft nude mice model; conditions: 100 mg/kg once a day for 15 days
Description: When the tumor is prominent, the BALB/c female mice were randomly assigned into control and treatment groups (six mice per group).
Injected mice were kept for 10 days; those with palpable tumors were then randomly assigned into treatment and control groups (six mice per group). The treatment groups were administrated with 100 mg/kg/d test compound intragastrically, whereas the control group was administered with an equal volume of phosphate-buffered saline (PBS) solution. The tumor size and body weight were assessed every day. After 15 days of treatment, the mice were euthanized, and tumor weights were acquired with an electronic balance.

HepG2 cells [3] = assay: Cell apoptosis assay (annexin V-FITC/PI, flow cytometry); format: cell-based, human; conditions: 24 h, normal group 5.83%
Description: Then cells were washed with PBS, collected, and resuspended with binding buffer from a commercially available annexin V–FITC kit (Thermo Fisher Co., USA) and mixed with 5 μL of annexin V–FITC gently. Following 10 min of incubation, 1 μL of propidium iodide was added to the samples and incubated for another 20 min while avoiding light. Flow cytometry was used to determine cell apoptosis status (CytoFLEX, Beckman Coulter).

MDA-MB-231 cells = assay: Antiproliferative MTT assay; format: cell-based; conditions: Homo sapiens, MDA-MB-231, 48 h, read-out: Antiproliferative IC50
Description: as §1

H322 cells = assay: Antiproliferative MTT assay; format: cell-based; conditions: Homo sapiens, NCI-H322, 48 h, read-out: Antiproliferative IC50
Description: as §1

FTC-133 cells = assay: Antiproliferative MTT assay; format: cell-based; conditions: Homo sapiens, FTC-133, 48 h, read-out: Antiproliferative IC50
Description: as §1

U937 cells = assay: Antiproliferative MTT assay; format: cell-based; conditions: Homo sapiens, U-937, 48 h, read-out: Antiproliferative IC50
Description: as §1

SW579 cells = assay: Antiproliferative MTT assay; format: cell-based; conditions: Homo sapiens, SW579, 48 h, read-out: Antiproliferative IC50
Description: as §1

SK-NEP-1 cells = assay: Antiproliferative MTT assay; format: cell-based; conditions: Homo sapiens, SK-NEP-1, 48 h, read-out: Antiproliferative IC50
Description: as §1

Hela cells = assay: Antiproliferative MTT assay; format: cell-based; conditions: Homo sapiens, 48 h, read-out: Antiproliferative IC50
Description: as §1

U266 cells = assay: Antiproliferative MTT assay; format: cell-based; conditions: Homo sapiens, U-266, 48 h, read-out: Antiproliferative IC50
Description: as §1

K562 cells = assay: Antiproliferative MTT assay; format: cell-based; conditions: Homo sapiens, K562, 48 h, read-out: Antiproliferative IC50
Description: as §1

OS-RC-2 cells = assay: Antiproliferative MTT assay; format: cell-based; conditions: Homo sapiens, OS-RC-2, 48 h, read-out: Antiproliferative IC50
Description: as §1

A2780 cells = assay: Antiproliferative MTT assay; format: cell-based; conditions: Homo sapiens, A2780, 48 h, read-out: Antiproliferative IC50
Description: as §1

HDAC4 = biological target: T1, HDAC4 (Homo sapiens, UniProt P56524); assay: biochemical
T1 construct: purchased BPS Bioscience
Description: (§2) All of the HDAC enzymes tested were purchased from BPS Bioscience. First, 20 μL of each recombinant HDAC enzyme solution (HDAC1, 2, 3, 4, 6, 7, 8, and 9) was mixed with various concentrations of tested compound samples (20 μL) in a 96-well plate. The mixture was incubated at 30°C for 1 h for the dose-dependent assay. Additionally, mixtures were incubated for 15, 30, 60, and 90 min, for the time-dependent assay, and then 10 μL of fluorogenic substrate [3 mM Boc-Lys(acetyl)-AMC or Boc-Lys (trifluoroacetyl)-AMC for HDAC1/2/3/6 or HDAC4/7/8/9, respectively] was added. Then, the acetylation reaction was initiated by adding HDAC substrate working solution and incubating at 30°C for 2 h. After the desired time, 10 μL developer with trypsin and trichostatin A was added to stop the reaction, and then the mixture was incubated at 30°C for another 30 min.
(§3) A microplate reader was used to determine fluorescence intensity at excitation: 360 nm and emission: 460 nm. The inhibition ratios were calculated by comparing the fluorescence intensities from tested wells to those of controls. The IC50 curves and values were then obtained with GraphPad Prism 6.0 software.

HDAC8 = biological target: T2, HDAC8 (Homo sapiens, UniProt Q9BY41); assay: biochemical
T2 construct: purchased BPS Bioscience
Description: as §2, §3

HDAC2 = biological target: T3, HDAC2 (Homo sapiens, UniProt Q92769); assay: biochemical; conditions: recombinant enzyme, n ≥ 2, SD <10% of mean
T3 construct: purchased BPS Bioscience
Description: as §2, §3

HDAC9 = biological target: T4, HDAC9 (Homo sapiens, UniProt Q9UKV0); assay: biochemical
T4 construct: purchased BPS Bioscience
Description: as §2, §3

HDAC1 = biological target: T5, HDAC1 (Homo sapiens, UniProt Q13547); assay: HDAC enzyme inhibition assay (fluorogenic substrate); format: biochemical; conditions: recombinant enzyme, n ≥ 2, SD <10% of mean
T5 construct: purchased BPS Bioscience
Description: as §2, §3

HDAC7 = biological target: T6, HDAC7 (Homo sapiens, UniProt Q8WUI4); assay: as above; format: biochemical; conditions: recombinant enzyme, n ≥ 2, SD <10% of mean
T6 construct: purchased BPS Bioscience
Description: as §2, §3

HDAC6 = biological target: T7, HDAC6 (Homo sapiens, UniProt Q9UBN7); assay: as above; format: biochemical
T7 construct: purchased BPS Bioscience
Description: as §2, §3

HDAC3 = biological target: T8, HDAC3 (Homo sapiens, UniProt O15379); assay: biochemical; format: biochemical
T8 construct: purchased BPS Bioscience
Description: as §2, §3

HepG2 cells [4] = assay: Cell cycle analysis (PI, flow cytometry); conditions: 6 h; for Percentage of cells in G2/M phase (third peak): HepG2
Description: (§5) Following 6-h incubation, cells were washed twice with cold PBS and then fixed in 70% precooled ethanol at 4°C for 12 h. The fixed cells were washed again and then stained with PI/RNase A for 30 min at room temperature.

SW480 cells = assay: Antiproliferative MTT assay; format: cell-based; conditions: Homo sapiens, SW480, 48 h, read-out: Antiproliferative IC50
Description: (§4) […]. The stock solutions of compounds to be tested were prepared in culture medium. Tumor cell lines were cultured in 96-well plates at a density of 5 × 10^3 cells per well and incubated until 90–95% confluence, and then each well received 100 μL medium containing desired concentrations of test compounds, and then incubated at 37°C and 5% CO2 for 48 h. To determine cell viability, 20 μL MTT working solution (5 mg/mL) was then added to each well and incubated for another 4 h. After this incubation, the medium was carefully aspirated, and 200 μL dimethyl sulfoxide (DMSO) was added to each well and vibrated for 10 min to make sure formed formazans were completely dissolved. The optical densities (ODs) at 490 and 630 nm were counted by Universal Microplate Spectrophotometer. […] Origin 7.5 software was used to calculate the IC50 values from at least three independent experiments.

A549 cells = assay: Antiproliferative MTT assay; format: cell-based; conditions: Homo sapiens, A549, 48 h, read-out: Antiproliferative IC50
Description: as §4

H460 cells = assay: Antiproliferative MTT assay; format: cell-based; conditions: Homo sapiens, NCI-H460, 48 h, read-out: Antiproliferative IC50
Description: as §4

HepG2 cells [5] = conditions: 6 h
Description: as §5

T8 sequence (O15379 whole entry): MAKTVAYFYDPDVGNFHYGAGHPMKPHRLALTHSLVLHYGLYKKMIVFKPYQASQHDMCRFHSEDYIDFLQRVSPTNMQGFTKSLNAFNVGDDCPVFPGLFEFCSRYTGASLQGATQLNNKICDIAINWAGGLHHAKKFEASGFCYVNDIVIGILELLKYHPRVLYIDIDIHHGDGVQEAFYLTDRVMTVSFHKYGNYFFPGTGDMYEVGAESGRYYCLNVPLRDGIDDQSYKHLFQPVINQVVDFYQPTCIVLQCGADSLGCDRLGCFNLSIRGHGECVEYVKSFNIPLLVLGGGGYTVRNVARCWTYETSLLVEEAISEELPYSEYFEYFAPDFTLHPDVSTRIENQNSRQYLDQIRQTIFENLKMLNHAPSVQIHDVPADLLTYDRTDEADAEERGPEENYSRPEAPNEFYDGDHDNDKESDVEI
T8 sequence (Q9Y618 395-489 partner limits assumed): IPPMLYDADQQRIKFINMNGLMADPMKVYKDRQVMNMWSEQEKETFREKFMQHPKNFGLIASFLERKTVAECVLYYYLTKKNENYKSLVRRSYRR
T6 sequence (Q8WUI4 whole entry): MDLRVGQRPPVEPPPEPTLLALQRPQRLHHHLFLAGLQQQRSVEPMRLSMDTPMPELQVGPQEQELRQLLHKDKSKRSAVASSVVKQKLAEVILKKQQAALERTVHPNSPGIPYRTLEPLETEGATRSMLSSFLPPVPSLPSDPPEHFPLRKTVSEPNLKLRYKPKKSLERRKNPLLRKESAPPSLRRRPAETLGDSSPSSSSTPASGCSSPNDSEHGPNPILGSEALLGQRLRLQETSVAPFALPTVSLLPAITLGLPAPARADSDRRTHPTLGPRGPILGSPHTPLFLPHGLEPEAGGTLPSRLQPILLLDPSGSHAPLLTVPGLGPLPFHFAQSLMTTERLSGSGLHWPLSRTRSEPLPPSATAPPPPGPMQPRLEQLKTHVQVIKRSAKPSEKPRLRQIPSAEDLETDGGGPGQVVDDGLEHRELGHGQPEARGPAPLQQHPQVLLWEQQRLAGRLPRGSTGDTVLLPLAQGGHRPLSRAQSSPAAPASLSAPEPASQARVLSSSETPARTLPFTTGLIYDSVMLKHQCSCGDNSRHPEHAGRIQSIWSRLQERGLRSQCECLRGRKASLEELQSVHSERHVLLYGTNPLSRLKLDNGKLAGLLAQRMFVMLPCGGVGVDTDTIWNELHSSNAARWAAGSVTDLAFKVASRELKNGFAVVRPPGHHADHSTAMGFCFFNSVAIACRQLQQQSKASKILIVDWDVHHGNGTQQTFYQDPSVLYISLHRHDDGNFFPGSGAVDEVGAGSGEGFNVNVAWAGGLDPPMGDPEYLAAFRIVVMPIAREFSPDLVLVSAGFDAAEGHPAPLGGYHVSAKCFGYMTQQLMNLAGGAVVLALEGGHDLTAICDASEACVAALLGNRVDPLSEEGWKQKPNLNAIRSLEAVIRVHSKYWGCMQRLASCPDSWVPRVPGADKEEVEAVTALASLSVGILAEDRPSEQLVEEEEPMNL
T1 sequence (P56524 whole entry): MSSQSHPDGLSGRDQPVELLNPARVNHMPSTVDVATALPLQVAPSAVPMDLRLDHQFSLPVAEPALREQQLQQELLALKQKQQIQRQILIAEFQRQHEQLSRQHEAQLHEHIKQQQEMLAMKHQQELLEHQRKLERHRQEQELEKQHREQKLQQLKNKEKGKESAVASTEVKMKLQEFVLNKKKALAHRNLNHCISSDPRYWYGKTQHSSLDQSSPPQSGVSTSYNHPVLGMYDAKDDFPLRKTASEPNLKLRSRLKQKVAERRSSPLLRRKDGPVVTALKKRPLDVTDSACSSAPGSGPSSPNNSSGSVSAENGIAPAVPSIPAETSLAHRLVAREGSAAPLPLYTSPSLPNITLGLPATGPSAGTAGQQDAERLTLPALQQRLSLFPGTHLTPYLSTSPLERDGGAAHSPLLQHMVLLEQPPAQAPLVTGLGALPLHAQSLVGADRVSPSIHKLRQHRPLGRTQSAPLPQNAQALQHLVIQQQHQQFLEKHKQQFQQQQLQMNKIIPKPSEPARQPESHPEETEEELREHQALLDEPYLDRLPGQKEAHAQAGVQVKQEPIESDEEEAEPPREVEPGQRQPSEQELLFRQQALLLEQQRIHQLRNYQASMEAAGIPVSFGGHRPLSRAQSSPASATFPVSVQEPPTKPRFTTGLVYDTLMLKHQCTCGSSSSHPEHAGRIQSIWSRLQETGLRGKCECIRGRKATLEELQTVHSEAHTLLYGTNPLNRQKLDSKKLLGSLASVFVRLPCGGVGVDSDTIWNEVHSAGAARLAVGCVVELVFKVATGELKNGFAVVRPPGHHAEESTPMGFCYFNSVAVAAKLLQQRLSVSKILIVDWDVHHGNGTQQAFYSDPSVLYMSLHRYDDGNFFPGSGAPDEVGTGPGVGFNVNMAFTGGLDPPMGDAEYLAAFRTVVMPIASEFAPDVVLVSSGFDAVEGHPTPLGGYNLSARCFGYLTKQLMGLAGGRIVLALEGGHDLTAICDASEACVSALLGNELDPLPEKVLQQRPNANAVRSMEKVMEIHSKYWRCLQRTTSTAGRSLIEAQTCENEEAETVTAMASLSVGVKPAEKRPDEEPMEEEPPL
T4 sequence (Q9UKV0 whole entry): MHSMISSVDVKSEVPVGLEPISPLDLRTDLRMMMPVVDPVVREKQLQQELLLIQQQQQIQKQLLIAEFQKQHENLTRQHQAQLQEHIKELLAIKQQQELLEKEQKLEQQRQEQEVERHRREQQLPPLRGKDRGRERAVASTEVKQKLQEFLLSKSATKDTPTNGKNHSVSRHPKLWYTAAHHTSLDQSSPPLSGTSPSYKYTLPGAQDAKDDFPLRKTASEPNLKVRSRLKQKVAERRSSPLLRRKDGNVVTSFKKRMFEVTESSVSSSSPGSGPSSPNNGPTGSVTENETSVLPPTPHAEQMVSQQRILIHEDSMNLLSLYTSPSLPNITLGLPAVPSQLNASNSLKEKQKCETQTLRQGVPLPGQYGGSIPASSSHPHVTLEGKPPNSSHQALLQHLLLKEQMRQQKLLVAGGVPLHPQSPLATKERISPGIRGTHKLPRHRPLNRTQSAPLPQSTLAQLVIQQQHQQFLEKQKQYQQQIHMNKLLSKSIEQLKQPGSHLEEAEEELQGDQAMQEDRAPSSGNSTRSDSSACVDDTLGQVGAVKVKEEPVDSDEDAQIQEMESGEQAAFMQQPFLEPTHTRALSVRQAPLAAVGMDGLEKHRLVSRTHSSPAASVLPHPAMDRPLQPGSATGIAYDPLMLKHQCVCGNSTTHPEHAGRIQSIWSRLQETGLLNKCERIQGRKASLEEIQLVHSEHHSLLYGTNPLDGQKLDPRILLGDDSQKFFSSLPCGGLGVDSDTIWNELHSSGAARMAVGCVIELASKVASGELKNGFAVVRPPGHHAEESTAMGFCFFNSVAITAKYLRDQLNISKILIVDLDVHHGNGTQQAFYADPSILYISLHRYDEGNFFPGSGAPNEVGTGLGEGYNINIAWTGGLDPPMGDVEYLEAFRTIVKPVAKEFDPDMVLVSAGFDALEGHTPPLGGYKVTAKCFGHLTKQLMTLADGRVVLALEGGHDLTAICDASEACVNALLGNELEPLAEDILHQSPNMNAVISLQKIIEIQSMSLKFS
T2 sequence (Q9BY41 whole entry): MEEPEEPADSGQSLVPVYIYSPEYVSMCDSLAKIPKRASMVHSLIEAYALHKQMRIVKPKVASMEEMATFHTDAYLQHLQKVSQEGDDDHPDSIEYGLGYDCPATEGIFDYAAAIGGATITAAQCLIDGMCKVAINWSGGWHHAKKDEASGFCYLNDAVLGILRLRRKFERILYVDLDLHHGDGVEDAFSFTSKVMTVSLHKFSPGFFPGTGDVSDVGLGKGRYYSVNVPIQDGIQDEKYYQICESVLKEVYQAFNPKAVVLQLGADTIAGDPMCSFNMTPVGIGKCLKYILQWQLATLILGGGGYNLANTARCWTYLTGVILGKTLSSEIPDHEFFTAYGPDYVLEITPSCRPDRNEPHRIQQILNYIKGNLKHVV
T3 sequence (Q92769 whole entry): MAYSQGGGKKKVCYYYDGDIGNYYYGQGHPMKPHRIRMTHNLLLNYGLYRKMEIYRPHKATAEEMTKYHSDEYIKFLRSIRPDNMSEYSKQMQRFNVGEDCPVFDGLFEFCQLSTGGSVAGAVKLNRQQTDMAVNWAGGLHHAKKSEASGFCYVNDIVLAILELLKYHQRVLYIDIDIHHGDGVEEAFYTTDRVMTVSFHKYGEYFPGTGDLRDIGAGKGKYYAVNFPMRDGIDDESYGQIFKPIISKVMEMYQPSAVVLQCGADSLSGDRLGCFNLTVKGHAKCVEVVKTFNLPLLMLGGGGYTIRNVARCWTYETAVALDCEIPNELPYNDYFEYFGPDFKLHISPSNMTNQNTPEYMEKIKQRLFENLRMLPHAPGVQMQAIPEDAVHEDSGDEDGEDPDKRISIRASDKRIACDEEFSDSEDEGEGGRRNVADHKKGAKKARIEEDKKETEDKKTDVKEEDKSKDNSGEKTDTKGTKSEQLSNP
T5 sequence (Q13547 whole entry): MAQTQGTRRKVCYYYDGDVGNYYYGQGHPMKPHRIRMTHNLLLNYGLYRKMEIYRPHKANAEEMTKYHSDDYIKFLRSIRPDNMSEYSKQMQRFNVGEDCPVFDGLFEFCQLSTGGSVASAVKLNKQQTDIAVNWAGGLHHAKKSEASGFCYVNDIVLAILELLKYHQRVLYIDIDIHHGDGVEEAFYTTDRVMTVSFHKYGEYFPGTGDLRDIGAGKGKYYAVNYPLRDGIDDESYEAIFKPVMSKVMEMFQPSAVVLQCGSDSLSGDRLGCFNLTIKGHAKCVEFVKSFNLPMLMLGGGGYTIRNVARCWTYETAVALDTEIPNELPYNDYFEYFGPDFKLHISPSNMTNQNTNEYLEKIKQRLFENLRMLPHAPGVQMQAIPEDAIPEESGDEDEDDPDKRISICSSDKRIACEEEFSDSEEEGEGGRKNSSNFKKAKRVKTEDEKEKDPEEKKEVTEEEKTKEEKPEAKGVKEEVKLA

Structure (SMILES): Nc1ccccc1NC(=O)c1ccc(N(CCCl)CCCl)cc1 [NA, N-(2-aminophenyl)-4-(bis(2-chloroethyl)amino)benzamide]
- In vivo potency compared with SAHA (HepG2 cells xenograft): lower potency than SAHA

Structure (SMILES): CC[C@@]1(O)C(=O)OCc2c1cc1n(c2=O)Cc2cc3ccccc3nc2-1 [camptothecin]
- inhibition at 0.25 µM (HepG2 cells [1]; HepG2, camptothecin 0.25 μM alone): 61.7%
- inhibition at 0.5 µM (HepG2 cells [1]; HepG2, camptothecin 0.5 μM alone): 60.9%

Structure (SMILES): Nc1cc(F)ccc1NC(=O)c1ccc(N(CCCl)CCCl)cc1 [FNA, N-(2-amino-4-fluorophenyl)-4-[bis-(2-chloroethyl)-amino]-benzamide]
- Potency relative to SAHA in inhibition of the growth of HepG2 cells (HepG2 cells [2]; HepG2, ratio of IC50 values): 13.3 fold
- IC50 (HepG2 cells [2]; Homo sapiens, HepG2, 48 h, read-out: Antiproliferative IC50): 1.3 ± 0.25 µM
- Tumor growth inhibition (TGI) rate (HepG2 xenograft): 48.89%
- Apoptosis rate of HepG2 cells (HepG2 cells [3]; 1 μM): 14.08%
- Apoptosis rate of HepG2 cells (HepG2 cells [3]; 3 μM): 19.11%
- Apoptosis rate of HepG2 cells (HepG2 cells [3]; 9 μM): 28.83%
- IC50 (MDA-MB-231 cells): 35.29 ± 0.03 µM
- IC50 (H322 cells): 6.36 ± 0.07 µM
- IC50 (FTC-133 cells): 9.09 ± 0.13 µM
- IC50 (U937 cells): 0.55 ± 0.03 µM
- IC50 (SW579 cells): 52.4 ± 0.13 µM
- IC50 (SK-NEP-1 cells): 8.32 ± 0.18 µM
- IC50 (Hela cells): 1.41 ± 0.04 µM
- IC50 (U266 cells): 0.63 ± 0.32 µM
- IC50 (K562 cells): 1.31 ± 0.05 µM
- IC50 (OS-RC-2 cells): > 100 µM
- IC50 (A2780 cells): 4.3 ± 0.12 µM
- IC50 (HDAC4): > 5 µM
- IC50 (HDAC8): > 5 µM
- IC50 (HDAC2): 0.949 µM
- IC50 (HDAC9): > 5 µM
- IC50 (HDAC1): 0.843 µM
- IC50 (HDAC7): > 5 µM
- IC50 (HDAC6): > 5 µM
- HDAC3 selectivity vs. HDAC1 (HDAC3; ratio of IC50 values): 8.83 fold
- HDAC3 selectivity vs. HDAC2 (HDAC3; ratio of IC50 values): 9.94 fold
- IC50 (HDAC3; recombinant enzyme, n ≥ 2, SD <10% of mean): 0.0955 µM
- Percentage of cells in G2/M phase (third peak) (HepG2 cells [4]; 0.125 μM): 18.84%
- Percentage of cells in G2/M phase (third peak) (HepG2 cells [4]; 0.5 μM): 59.36%
- IC50 (SW480 cells): > 100 µM
- IC50 (A549 cells): 33.74 ± 0.04 µM
- IC50 (H460 cells): 4.73 ± 0.05 µM

Structure (SMILES): CC(=O)O[C@H]1C(=O)[C@@]2(C)[C@H]([C@H](OC(=O)c3ccccc3)[C@]3(O)C[C@H](OC(=O)[C@H](O)[C@@H](NC(=O)c4ccccc4)c4ccccc4)C(C)=C1C3(C)C)[C@]1(OC(C)=O)CO[C@@H]1C[C@@H]2O [taxol]
- inhibition at 0.1 µM (HepG2 cells [1]; HepG2, taxol 0.1 μM alone): 57.1%
- inhibition at 0.2 µM (HepG2 cells [1]; HepG2, taxol 0.2 μM alone): 62.4%

- IC50 (SW480 cells): 2.91 ± 0.04 µM
- IC50 (H460 cells): 7.63 ± 0.03 µM
Structure (SMILES): O=C(CCCCCCC(=O)Nc1ccccc1)NO [SAHA, Vorinostat]
- Percentage of cells, first peak of cell cycle histogram (phase not given) (HepG2 cells [5]; 0.125 μM): 57.65%
- Percentage of cells, second peak of cell cycle histogram (phase not given) (HepG2 cells [5]; 0.125 μM): 25.02%
- Percentage of cells, first peak of cell cycle histogram (phase not given) (HepG2 cells [5]; 0.25 μM): 56.26%
- Percentage of cells, second peak of cell cycle histogram (phase not given) (HepG2 cells [5]; 0.25 μM): 26.33%
- Percentage of cells, first peak of cell cycle histogram (phase not given) (HepG2 cells [5]; 0.5 μM): 64.73%
- Percentage of cells, second peak of cell cycle histogram (phase not given) (HepG2 cells [5]; 0.5 μM): 23.27%
- Apoptosis rate of HepG2 cells (HepG2 cells [3]; 1 μM): 10.03%
- Apoptosis rate of HepG2 cells (HepG2 cells [3]; 9 μM): 12.43%
- Effect in the regulation of HepG2 cell cycle (HepG2 cells [4]; 0.125, 0.25 and 0.5 μM): did not exhibit any effects
